Where a name gives a salt, the structure may show the parent alone.
Tests used:
Dopamine receptor D2 = biological target: T1, Dopamine receptor D2 (Homo sapiens, UniProt P14416); assay: PDSP primary radioligand binding assay; conditions: compound 10 μM; for inhibition at 10 µM: n=4, read-out: mean percentage inhibition, Dopamine receptor D2
T1 construct: expressed in transfected cells
Experimental: Primary and secondary radioligand binding assays are performed. In general, the primary assay is run at very high ligand (compound) concentration as a broad screen to determine whether a compound binds to a particular receptor. If greater than 50% inhibition at 10 μM (high concentration of compound) at a particular receptor is determined, a secondary assay is performed on that receptor. Data from the secondary assay is the binding affinity (Ki value).
A solution of the compound to be tested is prepared as a 1 mg/ml stock in Standard Binding Buffer or dimethyl sulfoxide (DMSO) according to its solubility. A similar stock of a reference compound (positive control) is also prepared.
Radioligand (radioligands are presented in Table 39) is diluted to five times the assay concentration (assay concentrations are presented in Table 39) in Standard Binding Buffer. Typically, the assay concentration of radioligand is a value between one half the KD and the KD of a particular radioligand at its target. Aliquots (50 μL) of radioligand are dispensed into the wells of a 96-well plate (see FIG. 11) containing 100 μL of Standard Binding Buffer (Table 40). Then, duplicate 50 μL aliquots of the test and reference compound dilutions are added (see FIG. 11). According to FIG. 11, increasing concentrations (from left to right) of reference or test compound (diluted in buffer) are added (50 μL aliquots, in duplicate) from 5× stock solutions to wells containing 50 μL of 5× radioligand (fixed concentration, prepared in buffer) and 100 μL of buffer. Finally, 50 μL of receptor-containing membrane homogenate (5× suspension in buffer) are added to achieve a final assay volume of 250 μL. Final concentrations of reference or test compound are listed above the columns in FIG. 11.
Finally, crude membrane fractions of cells expressing recombinant target (prepared from 10 cm plates by harvesting phosphate buffered saline (PBS)-rinsed monolayers, resuspending and lysing in chilled, hypotonic 50 mM Tris-HCl, pH 7.4, centrifuging at 20,000×g, decanting the supernatant and storing at −80° C.; typically, one 10 cm plate provides sufficient material for 24 wells) are resuspended in 3 mL of chilled Standard Binding Buffer and homogenized by several passages through a 26 gauge needle, and then 50 μL are dispensed into each well.
The 250 μL reactions are incubated at room temperature and shielded from light (to prevent photolysis of light-sensitive ligands) for 1.5 hours, then harvested by rapid filtration onto Whatman GF/B glass fiber filters pre-soaked with 0.3% polyethyleneimine using a 96-well Brandel harvester. Four rapid 500 μL washes are performed with chilled Standard Binding Buffer to reduce non-specific binding. Filters are placed in 6 mL scintillation tubes and allowed to dry overnight. The next day, 4 mL of EcoScint scintillation cocktail (National Diagnostics) are added to each tube. The tubes are capped, labeled, and counted by liquid scintillation counting. For higher throughput assays, bound radioactivity is harvested onto 0.3% polyethyleneimine-treated, 96-well filter mats using a 96-well Filtermate harvester. The filter mats are dried, then scintillant is melted onto the filters, and the radioactivity retained on the filters is counted in a Microbeta scintillation counter.
Raw data (dpm) representing total radioligand binding (i.e., specific+non-specific binding) are plotted as a function of the logarithm of the molar concentration of the competitor (i.e., test or reference compound). […]

Male P rats = assay: Animal model of excessive (binge) alcohol consumption, operant alcohol responding; assay type: in vivo, rat; conditions: N=5 per compound, oral gavage, lever press for alcohol, FIG. 13, FIG. 14
Experimental: Male P rats are used as subjects. All animals are individually housed in shoebox cages in a temperature- and humidity-controlled room on a 12 h:12 h light/dark cycle (lights on at 8:00 AM, off at 8:00 PM) with food and water available ad libitum. All behavioral training and testing take place between 8:00 AM and 10:00 AM. All procedures are conducted in accordance with the NIH Guide for the Care and Use of Laboratory Animals.
10% (v/v) EtOH and 3% (w/v) sucrose solutions are prepared using previously published procedures (Harvey et al. J. Neurosci. 2002, 22, 3765-3775; June et al. Neuropsychopharmacology 2003, 28, 2124-2137) with deionized water. The solutions are prepared daily. Compounds are administered by oral gavage (20-60 mg/kg) in all studies (e.g., alcohol responding, sucrose responding) as indicated in FIG. 12. The compounds are mixed in deionized water and administered by gavage in an injection volume of 1 mL/kg 25 min prior to the behavioral task. […]
Approximately 100 μL of whole blood is collected from a rat's tail tip into a heparin-coated microsample tube. […] The results are calculated in units of mg/dL and printed within 20 s of each trial as previously reported (Harvey et al., J. Neurosci. 2002, 22, 3765-3775; June et al. Neuropsychopharmacology 2003, 28, 2124-2137). […]

T1 sequence (P14416 whole entry): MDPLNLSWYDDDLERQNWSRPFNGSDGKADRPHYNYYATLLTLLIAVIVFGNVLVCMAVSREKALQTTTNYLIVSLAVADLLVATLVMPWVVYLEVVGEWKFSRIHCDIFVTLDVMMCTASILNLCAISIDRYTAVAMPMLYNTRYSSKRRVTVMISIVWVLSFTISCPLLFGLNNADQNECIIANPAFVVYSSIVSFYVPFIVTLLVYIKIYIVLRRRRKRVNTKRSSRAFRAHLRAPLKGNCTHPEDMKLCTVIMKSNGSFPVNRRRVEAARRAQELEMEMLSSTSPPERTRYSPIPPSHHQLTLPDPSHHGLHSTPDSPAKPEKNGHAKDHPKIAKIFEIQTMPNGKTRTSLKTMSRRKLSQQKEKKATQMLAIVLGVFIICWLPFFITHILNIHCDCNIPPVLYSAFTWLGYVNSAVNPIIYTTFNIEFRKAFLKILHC

SMILES	inhibition at 10 µM (Dopamine receptor D2) [%]	effect on excessive alcohol consumption (Male P rats)	mean percentage inhibition, Dopamine receptor D2 (Dopamine receptor D2; n=4, hydrochloride, 10 µM) [%]
CCCOc1cc2c(cn1)[nH]c1ccncc12 [Compound 2, 8-Propoxypyridino[4′,3′-5,4]pyrrolo[3,2-c]pyridine hydrochloride]	> 50	Reduce Excessive Alcohol Consumption	
CCCOc1cc2c(cn1)[nH]c1cnccc12 [Compound 4, 3-Propoxy pyridino[4′,3′-4,5]pyrrolo[2,3-c]pyridine hydrochloride]	> 50	Reduce Excessive Alcohol Consumption	50
